Experimental data as given in patent US20230364070A1, “PYRROLO[3,2-C]PYRIDIN-4-ONE DERIVATIVES USEFUL IN THE TREATMENT OF CANCER” (Scorpion Therapeutics, Inc., priority 2020, published 2023).

Key:
Format in all cases: cell-based
[1] = molecular target: T1, pEGFR in CUTO14 cells (Homo sapiens, UniProt P00533, DUP767-769); test: Inhibitor activity on EGFR phosphorylation (pEGFR AlphaLISA, 2 h), CUTO14 cells
T1 construct: endogenous in cells; host or cells: CUTO14 cells
Protocol: CUTO14 cells were obtained from Dr. Robert C. Doebele at the University of Colorado.
Shake 350 rpm for 1 hr in the dark • 3.4 Prepare donor mix under low light conditions prior to use. Dispense 5 μL of donor mix to all the wells. Mix well on the shaker, seal and wrap in aluminum foil and incubate 1.5 hrs at room temperature in the dark • 3.5 Transfer 18.5 μL mixture to OptiPlate 384, and read using an Envision.

[2] = molecular target: T2, Ba/F3 cells with EGFR WT (Homo sapiens, UniProt P00533); test: EGFR activity: Ba/F3 cell viability (CellTiter-Glo, 72 h), EGFR WT; conditions: read-out: BaF3 WT IC50
T2 construct: expressed in transfected cells; host or cells: Ba/F3 (murine pro-B cells), retroviral transduction, puromycin selection, maintained with EGF
T2 sequence (P00533 25-1210): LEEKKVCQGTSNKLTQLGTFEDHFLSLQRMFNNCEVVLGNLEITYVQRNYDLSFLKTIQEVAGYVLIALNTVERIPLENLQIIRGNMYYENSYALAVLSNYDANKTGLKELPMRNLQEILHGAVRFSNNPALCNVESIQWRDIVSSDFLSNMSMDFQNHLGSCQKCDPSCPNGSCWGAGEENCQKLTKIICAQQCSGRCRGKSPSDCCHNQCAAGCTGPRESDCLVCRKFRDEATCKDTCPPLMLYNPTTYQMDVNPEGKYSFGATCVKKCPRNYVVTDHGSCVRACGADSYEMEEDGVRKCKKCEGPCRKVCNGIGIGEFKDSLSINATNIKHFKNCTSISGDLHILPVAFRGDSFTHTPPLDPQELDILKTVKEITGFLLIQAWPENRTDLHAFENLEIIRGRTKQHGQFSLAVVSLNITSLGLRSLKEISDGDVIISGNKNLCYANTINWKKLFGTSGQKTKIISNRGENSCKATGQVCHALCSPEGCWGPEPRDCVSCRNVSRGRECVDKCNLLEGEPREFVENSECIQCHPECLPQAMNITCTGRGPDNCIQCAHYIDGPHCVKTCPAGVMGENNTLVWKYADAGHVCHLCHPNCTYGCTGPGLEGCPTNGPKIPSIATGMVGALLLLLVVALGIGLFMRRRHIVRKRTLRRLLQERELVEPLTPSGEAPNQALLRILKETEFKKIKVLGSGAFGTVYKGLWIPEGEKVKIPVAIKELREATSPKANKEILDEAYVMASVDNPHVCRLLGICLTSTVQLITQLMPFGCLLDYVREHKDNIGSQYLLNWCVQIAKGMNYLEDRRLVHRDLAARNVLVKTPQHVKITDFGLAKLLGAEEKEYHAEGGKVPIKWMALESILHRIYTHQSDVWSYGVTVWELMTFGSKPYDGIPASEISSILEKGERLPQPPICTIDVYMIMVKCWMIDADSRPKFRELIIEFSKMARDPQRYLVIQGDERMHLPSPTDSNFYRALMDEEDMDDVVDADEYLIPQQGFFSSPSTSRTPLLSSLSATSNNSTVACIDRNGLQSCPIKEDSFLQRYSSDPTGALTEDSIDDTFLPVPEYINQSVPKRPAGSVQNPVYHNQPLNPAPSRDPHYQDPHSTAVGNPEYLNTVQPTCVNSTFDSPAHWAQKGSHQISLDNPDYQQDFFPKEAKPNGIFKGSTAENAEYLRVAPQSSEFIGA

[3] = molecular target: T3, Ba/F3 cells with EGFR exon 20 NPG Ins D770_N771 (Homo sapiens, UniProt P00533, INS770NPG); test: EGFR activity: Ba/F3 cell viability (CellTiter-Glo, 72 h), EGFR exon 20 NPG insertion; conditions: EGFR exon 20 NPG Ins D770_N771, cell viability, read-out: BaF3 NPG IC50
T3 construct: expressed in transfected cells; host or cells: Ba/F3 (murine pro-B cells), retroviral transduction, puromycin selection, IL3-independent pool
T3 sequence (P00533 with tags, fused parts or gaps INS770NPG): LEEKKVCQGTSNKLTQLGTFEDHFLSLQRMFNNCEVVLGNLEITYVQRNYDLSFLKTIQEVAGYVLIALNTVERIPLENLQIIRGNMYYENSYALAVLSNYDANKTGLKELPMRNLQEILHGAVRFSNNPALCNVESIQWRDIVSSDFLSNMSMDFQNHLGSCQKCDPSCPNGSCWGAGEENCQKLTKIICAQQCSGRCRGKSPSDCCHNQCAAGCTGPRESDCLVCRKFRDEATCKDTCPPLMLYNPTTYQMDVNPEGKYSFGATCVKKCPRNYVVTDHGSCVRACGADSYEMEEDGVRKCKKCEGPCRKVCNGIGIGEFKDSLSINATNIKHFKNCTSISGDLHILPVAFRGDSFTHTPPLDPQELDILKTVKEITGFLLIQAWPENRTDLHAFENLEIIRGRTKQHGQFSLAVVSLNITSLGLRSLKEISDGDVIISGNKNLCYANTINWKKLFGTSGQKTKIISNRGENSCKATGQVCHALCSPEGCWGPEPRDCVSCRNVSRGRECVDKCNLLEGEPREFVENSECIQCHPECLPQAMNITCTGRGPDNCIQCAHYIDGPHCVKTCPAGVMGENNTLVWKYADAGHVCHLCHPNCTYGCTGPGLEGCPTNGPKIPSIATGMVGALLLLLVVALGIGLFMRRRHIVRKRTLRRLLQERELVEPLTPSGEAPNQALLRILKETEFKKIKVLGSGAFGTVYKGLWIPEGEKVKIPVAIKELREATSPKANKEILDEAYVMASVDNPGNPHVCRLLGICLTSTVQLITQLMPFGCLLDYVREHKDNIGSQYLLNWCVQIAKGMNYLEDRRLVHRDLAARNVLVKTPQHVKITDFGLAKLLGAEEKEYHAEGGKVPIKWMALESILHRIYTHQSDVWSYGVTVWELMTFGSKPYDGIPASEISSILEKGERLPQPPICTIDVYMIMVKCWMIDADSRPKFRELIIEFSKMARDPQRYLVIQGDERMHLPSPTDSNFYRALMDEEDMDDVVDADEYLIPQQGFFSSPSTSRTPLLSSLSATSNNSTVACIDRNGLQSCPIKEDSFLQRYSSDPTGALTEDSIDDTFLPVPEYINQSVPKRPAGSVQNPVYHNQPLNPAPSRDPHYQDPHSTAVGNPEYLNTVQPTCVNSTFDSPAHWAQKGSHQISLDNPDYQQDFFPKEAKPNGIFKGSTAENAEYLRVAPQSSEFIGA

[4] = molecular target: T4, Ba/F3 cells with EGFR exon 20 ASV Ins V769_D770 (Homo sapiens, UniProt P00533, INS769ASV); test: EGFR activity: Ba/F3 cell viability (CellTiter-Glo, 72 h), EGFR exon 20 ASV insertion; conditions: EGFR exon 20 ASV Ins V769_D770, cell viability, read-out: BaF3 ASV IC50
T4 construct: expressed in transfected cells; host or cells: Ba/F3 (murine pro-B cells), retroviral transduction, puromycin selection, IL3-independent pool
T4 sequence (P00533 with tags, fused parts or gaps INS769ASV): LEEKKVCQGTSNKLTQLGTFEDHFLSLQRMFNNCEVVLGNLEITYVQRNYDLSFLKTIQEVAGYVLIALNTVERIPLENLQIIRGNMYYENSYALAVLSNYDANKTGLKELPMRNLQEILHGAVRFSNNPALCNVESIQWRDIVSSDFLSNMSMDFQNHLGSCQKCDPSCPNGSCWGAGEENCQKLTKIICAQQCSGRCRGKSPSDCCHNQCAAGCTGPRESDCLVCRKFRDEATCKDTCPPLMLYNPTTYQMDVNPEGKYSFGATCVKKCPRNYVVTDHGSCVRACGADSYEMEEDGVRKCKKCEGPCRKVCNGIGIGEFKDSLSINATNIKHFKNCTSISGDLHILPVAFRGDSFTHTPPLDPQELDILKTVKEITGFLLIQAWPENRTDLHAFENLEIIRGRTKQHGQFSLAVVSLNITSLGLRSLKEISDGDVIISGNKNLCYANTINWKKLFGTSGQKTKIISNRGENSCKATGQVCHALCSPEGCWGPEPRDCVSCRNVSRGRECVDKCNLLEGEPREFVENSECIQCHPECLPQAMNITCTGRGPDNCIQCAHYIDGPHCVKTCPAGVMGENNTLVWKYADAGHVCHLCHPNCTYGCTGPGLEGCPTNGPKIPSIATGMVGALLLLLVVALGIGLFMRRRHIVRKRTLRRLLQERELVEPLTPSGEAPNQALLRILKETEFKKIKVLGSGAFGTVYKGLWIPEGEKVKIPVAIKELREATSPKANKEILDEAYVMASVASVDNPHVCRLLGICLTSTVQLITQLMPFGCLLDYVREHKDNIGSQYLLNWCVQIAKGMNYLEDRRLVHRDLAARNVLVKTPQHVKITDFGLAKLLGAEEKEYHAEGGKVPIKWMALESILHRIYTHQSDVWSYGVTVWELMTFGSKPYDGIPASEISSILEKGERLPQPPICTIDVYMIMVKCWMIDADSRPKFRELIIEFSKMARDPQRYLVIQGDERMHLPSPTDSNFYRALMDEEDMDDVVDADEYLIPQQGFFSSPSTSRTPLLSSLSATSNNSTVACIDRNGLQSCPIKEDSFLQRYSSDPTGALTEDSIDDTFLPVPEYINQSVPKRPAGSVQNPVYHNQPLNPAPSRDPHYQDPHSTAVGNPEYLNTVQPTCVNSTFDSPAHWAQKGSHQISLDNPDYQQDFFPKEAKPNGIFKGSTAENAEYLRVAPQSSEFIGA

T1 sequence (P00533 with tags, fused parts or gaps DUP767-769): as the sequence (P00533 with tags, fused parts or gaps INS769ASV) above

Row | IC50 [1] | Compound | IC50 [2] | IC50 [3] | IC50 [4]
1 | < 100 nM | C=CC(=O)N1[C@@H](COc2cnccc2-c2[nH]c3c(c2Nc2cccc(F)c2OC)C(=O)NCC3)C[C@H]1C (relative stereo) [compound 332] |  |  | 
2 | < 100 nM | C=CC(=O)N1CC(C)(C)C1C#Cc1cnccc1-c1[nH]c2c(c1Nc1cccc(Cl)c1OC)C(=O)NCC2 (single isomer, unassigned) [compound 233] |  |  | 
3 | < 100 nM | C=CC(=O)N1CC(C)(C)C1C#Cc1cnccc1-c1[nH]c2c(c1Nc1cccc(F)c1OC)C(=O)NCC2 (single isomer, unassigned) [compound 249] |  |  | 
4 | < 100 nM | C=CC(=O)NC1(C#Cc2cnccc2-c2[nH]c3c(c2Nc2cccc(Cl)c2OC)C(=O)NCC3)CCOC1 (single isomer, unassigned) [compound 322] |  |  | 
5 | < 100 nM | C=CC(=O)N1CCC1(C)COc1cnccc1-c1[nH]c2c(c1Nc1cccc(F)c1CC)C(=O)NCC2 (single isomer, unassigned) [compound 359] |  |  | 
6 | < 100 nM | C=CC(=O)N1CCC1(C)COc1cnccc1-c1[nH]c2c(c1Nc1cccc(Cl)c1OC)C(=O)NCC2 (single isomer, unassigned) [compound 511] |  |  | 
7 | < 100 nM | C=CC(=O)N1CC(C)(C)C1COc1cnccc1-c1[nH]c2c(c1Nc1cccc(Cl)c1OC)C(=O)NCC2 (single isomer, unassigned) [compound 513] |  |  | 
8 | < 100 nM | C=CC(=O)NC1(C#Cc2cnccc2-c2[nH]c3c(c2Nc2cccc(F)c2OC)C(=O)NCC3)CC1 [compound 206, N-{1-[2-(4-{3-[(3-fluoro-2-methoxyphenyl)amino]-4-oxo-1H,5H,6H,7H-pyrrolo[3,2-c]pyridin-2-yl}pyridin-3-yl)ethynyl]cyclopropyl}prop-2-enamide] |  |  | 
9 | < 100 nM | Cc1c(F)cccc1Nc1c(-c2ccncc2OC[C@@H]2CCCN2C(=O)/C=C/CN(C)C)[nH]c2c1C(=O)NCC2 [compound 217, 2-(3-{[(2S)-1-[(2E)-4-(dimethylamino)but-2-enoyl]pyrrolidin-2-yl]methoxy}pyridin-4-yl)-3-[(3-fluoro-2-methylphenyl)amino]-1H,5H,6H,7H-pyrrolo[3,2-c] pyridin-4-one] |  |  | 
10 | < 100 nM | C=CC(=O)N1CC(C)(C)[C@H]1C#Cc1cnccc1-c1[nH]c2c(c1Nc1cccc(Cl)c1OC)C(=O)NCC2 [compound 232, 3-[(3-chloro-2-methoxyphenyl)amino]-2-(3-{2-[(2R)-3,3-dimethyl-1-(prop-2-enoyl)azetidin-2-yl]ethynyl}pyridin-4-yl)-1H,5H,6H,7H-pyrrolo[3,2-c]pyridin-4-one] |  |  | 
11 | < 100 nM | C=CC(=O)N1CC(C)(C)C[C@@H]1C#Cc1cnccc1-c1[nH]c2c(c1Nc1cccc(F)c1OC)C(=O)NCC2 [compound 253, 2-(3-{2-[(2R)-4,4-dimethyl-1-(prop-2-enoyl)pyrrolidin-2-yl]ethynyl}pyridin-4-yl)-3-[(3-fluoro-2-methoxyphenyl)amino]-1H,5H,6H,7H-pyrrolo[3,2-c]pyridin-4-one] |  |  | 
12 | < 100 nM | C=CC(=O)N(C)C(C)(C)C#Cc1cnccc1-c1[nH]c2c(c1Nc1cccc(F)c1OC)C(=O)NCC2 [compound 259, N-[4-(4-{3-[(3-fluoro-2-methoxyphenyl)amino]-4-oxo-1H,5H,6H,7H-pyrrolo[3,2-c]pyridin-2-yl}pyridin-3-yl)-2-methylbut-3-yn-2-yl]-N-methylprop-2-enamide] |  |  | 
13 | < 100 nM | C=CC(=O)NC1(C#Cc2cnccc2-c2[nH]c3c(c2Nc2cccc(F)c2OC)C(=O)NCC3)COC1 [compound 263] |  |  | 
14 | < 100 nM | C=CC(=O)N1[C@H]2CC[C@H](C2)[C@@H]1COc1cnccc1-c1[nH]c2c(c1Nc1cccc(Cl)c1OC)C(=O)NCC2 [compound 274, 3-[(3-chloro-2-methoxyphenyl)amino]-2-(3-{[(1S,3R,4R)-2-(prop-2-enoyl)-2-azabicyclo[2.2.1]heptan-3-yl]methoxy}pyridin-4-yl)-1H,5H,6H,7H-pyrrolo[3,2-c]pyridin-4-one] |  |  | 
15 | < 100 nM | CC#CC(=O)N1CC[C@H]1COc1cnccc1-c1[nH]c2c(c1Nc1cccc(Cl)c1OC)C(=O)NCC2 [compound 288, 2-(3-{[(2S)-1-(but-2-ynoyl)azetidin-2-yl]methoxy}pyridin-4-yl)-3-[(3-chloro-2-methoxyphenyl)amino]-1H,5H,6H,7H-pyrrolo[3,2-c]pyridin-4-one] |  |  | 
16 |  | C=CC(=O)NC1(C#Cc2cnccc2-c2[nH]c3c(c2Nc2cccc(Cl)c2OC)C(=O)NCC3)CN(C)C1 [compound 410] | > 1000 nM | < 100 nM | 100 to 1000 nM
17 |  | C=CC(=O)NC(C)(C)C#Cc1cnccc1-c1[nH]c2c(c1Nc1cc(F)cc(Cl)c1OC)C(=O)NCC2 [compound 428] | 100 to 1000 nM | < 100 nM | < 100 nM
18 |  | COc1c(Cl)cc(F)cc1Nc1c(-c2ccncc2C#C[C@@]2(C)CCCN2C(=O)C#CCN(C)C)[nH]c2c1C(=O)NCC2 [compound 432] | 100 to 1000 nM | < 100 nM | < 100 nM
19 |  | COc1c(Cl)cc(F)cc1Nc1c(-c2ccncc2C#CC23CC(CN2C(=O)/C=C/CN(C)C)C3)[nH]c2c1C(=O)NCC2 [compound 438] | 100 to 1000 nM | < 100 nM | < 100 nM

Row | IC50 [1] | Compound | IC50 [2] | IC50 [3] | IC50 [4]
20 |  | C=CC(=O)NC1(C#Cc2cnccc2-c2[nH]c3c(c2Nc2cccc(Cl)c2OC)C(=O)NCC3)CNC1 [compound 455] | > 1000 nM | > 1000 nM | > 1000 nM
21 |  | COc1c(F)cccc1Nc1c(-c2ccncc2C#C[C@@]2(C)COCCN2C(=O)/C=C/CN(C)C)[nH]c2c1C(=O)NCC2 [compound 459] | > 1000 nM | < 100 nM | < 100 nM
22 |  | C=CC(=O)N1CCOC[C@]1(C)C#Cc1cnccc1-c1[nH]c2c(c1Nc1cccc(F)c1OC)C(=O)NCC2 [compound 460] | 100 to 1000 nM | < 100 nM | < 100 nM
23 |  | C=CC(=O)N1CCOC[C@]1(C)C#Cc1cnccc1-c1[nH]c2c(c1Nc1cccc(Cl)c1OC)C(=O)NCC2 [compound 461] | 100 to 1000 nM | < 100 nM | < 100 nM
24 |  | COc1c(Cl)cccc1Nc1c(-c2ccncc2C#C[C@H]2CN(C)CCO2)[nH]c2c1C(=O)NCC2 [compound 495] | 100 to 1000 nM | < 100 nM | < 100 nM
25 |  | Cc1c(F)cccc1Nc1c(-c2ccncc2C#CC(C)(C)C)[nH]c2c1C(=O)NCC2 [compound 499] | > 1000 nM | < 100 nM | < 100 nM
26 |  | COc1c(Cl)cccc1Nc1c(-c2ccncc2C#CC2CCCC2)[nH]c2c1C(=O)NCC2 [compound 526] | 100 to 1000 nM | < 100 nM | < 100 nM
27 |  | C=C(CN(C)C)C(=O)NC(C)(C)C#Cc1cnccc1-c1[nH]c2c(c1Nc1cccc(Cl)c1OC)C(=O)NCC2 [compound 574] | < 100 nM | < 100 nM | < 100 nM
28 |  | C=C(CN(C)C)C(=O)NC(C)(C)C#Cc1cnccc1-c1[nH]c2c(c1Nc1cccc(F)c1OC)C(=O)NCC2 [compound 575] | < 100 nM | < 100 nM | < 100 nM
29 |  | C=CC(=O)N[C@H](C#Cc1cnccc1-c1[nH]c2c(c1Nc1cccc(Cl)c1OC)C(=O)NCC2)CC [compound 581] | 100 to 1000 nM | < 100 nM | < 100 nM
30 |  | C=CC(=O)N[C@@H](C#Cc1cnccc1-c1[nH]c2c(c1Nc1cccc(Cl)c1OC)C(=O)NCC2)CC [compound 582] | > 1000 nM | < 100 nM | < 100 nM
31 |  | COc1c(F)cccc1Nc1c(-c2ccncc2C#C[C@H]2CCN2C(=O)/C=C/CN(C)C)[nH]c2c1C(=O)NCC2 [compound 593] | 100 to 1000 nM | < 100 nM | < 100 nM
32 |  | COc1c(F)cccc1Nc1c(-c2ccncc2C#C[C@@H]2CCN2C(=O)/C=C/CN(C)C)[nH]c2c1C(=O)NCC2 [compound 594] | > 1000 nM | < 100 nM | < 100 nM
33 |  | COc1c(Cl)cccc1Nc1c(-c2ccncc2C#C[C@@]2(C)CCCN2C(=O)/C=C/CNC2COC2)[nH]c2c1C(=O)NCC2 [compound 595] | > 1000 nM | < 100 nM | 100 to 1000 nM
34 |  | COc1c(Cl)cccc1Nc1c(-c2ccncc2C#C[C@@]2(C)CCCN2C(=O)/C=C/CN2CC(F)(F)C2)[nH]c2c1C(=O)NCC2 [compound 603] | > 1000 nM | 100 to 1000 nM | 100 to 1000 nM
35 |  | CC#CC(=O)N1CC[C@@H]1COc1cnccc1-c1[nH]c2cc[nH]c(=O)c2c1Nc1cccc(Cl)c1OC [compound 630] | > 1000 nM | < 100 nM | < 100 nM
36 |  | COc1c(F)cccc1Nc1c(-c2ccncc2C#C[C@]2(C)COCCN2C(=O)/C=C/CN(C)C)[nH]c2c1C(=O)NCC2 [compound 631] | 100 to 1000 nM | < 100 nM | < 100 nM
37 |  | C=CC(=O)N1CCOC[C@@]1(C)C#Cc1cnccc1-c1[nH]c2c(c1Nc1cccc(F)c1OC)C(=O)NCC2 [compound 632] | 100 to 1000 nM | < 100 nM | < 100 nM
38 |  | C=CC(=O)N1CCOC[C@@]1(C)C#Cc1cnccc1-c1[nH]c2c(c1Nc1cccc(Cl)c1OC)C(=O)NCC2 [compound 634] | 100 to 1000 nM | < 100 nM | < 100 nM
